According to patent US11618747B2, “LXR modulators with bicyclic core moiety” (OrsoBio, Inc., priority 2018, dated 2023):

Key:
[1] = target: T1, ligand-binding domain (LBD) of LXRβ (Homo sapiens, UniProt P55055, DUP175-175); assay: LXR Gal4 reporter transient transfection assay (LBD-M2H Gal4β); assay type: cell-based; conditions: HEK293 cells, LXRβ LBD; read-out: LBD-M2H Gal4β (EC50 range)
T1 construct: LXRβ (amino acids 156-461); expressed in transfected cells; host or cells: HEK293
T1 sequence (P55055 with tags, fused parts or gaps DUP175-175 limits assumed): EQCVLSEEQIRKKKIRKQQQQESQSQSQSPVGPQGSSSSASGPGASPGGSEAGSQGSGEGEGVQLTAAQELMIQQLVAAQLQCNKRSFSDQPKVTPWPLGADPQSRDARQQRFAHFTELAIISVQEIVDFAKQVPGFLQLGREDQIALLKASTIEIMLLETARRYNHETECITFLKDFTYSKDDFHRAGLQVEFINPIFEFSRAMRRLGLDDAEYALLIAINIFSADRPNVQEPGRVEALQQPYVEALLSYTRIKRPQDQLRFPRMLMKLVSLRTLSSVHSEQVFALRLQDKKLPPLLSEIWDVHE
Method: (§1) The tested compounds were usually dissolved, tested and stored as 20 mM stock solutions in DMSO. Since sulfonyl acetic acid derivatives tend to decarboxylate under these conditions, these stock solutions were prepared, tested and stored as 20 mM DMSO stock solutions containing 100 mM trifluoroacetic Acid (5 equivalents). Sulfonyl acetic acid derivatives are shelf stable as solid at rt for long time as reported by Griesbrecht et al. (Synlett 2010:374) or Faucher et al. (J. Med. Chem. 2004; 47:18).
(§2) LXR Gal4 Reporter Transient Transfection Assays
(§3) LXRα and LXRβ activity status was determined via detection of interaction with coactivator and corepressor proteins in mammalian two-hybrid experiments (M2H). For this, via transient transfection the full length (FL) proteins of LXRα (amino acids 1-447; NP005684; SEQ ID NO:1) or LXRβ-(amino acids 1-461; NP009052; SEQ ID NO:2) or the ligand-binding domains (LBD) of LXRα (amino acids 155-447 SEQ ID NO:3) or LXRβ (amino acids 156-461; SEQ ID NO:4) were expressed from pCMV-AD (Stratagene) as fusions to the transcriptional activation domain of NFkB. As cofactors, domains of either the steroid receptor coactivator 1 (SRC1; amino acids 552-887; SEQ ID NO:5) or of the corepressor NCoR (amino acids 1906-2312; NP006302; SEQ ID NO:6) were expressed as fusions to the DNA binding domain of the yeast transcription factor GAL4 (from pCMV-BD; Stratagene). Interaction was monitored via activation of a coexpressed Firefly Luciferase Reporter gene under control of a promoter containing repetitive GAL4 response elements (vector pFRLuc; Stratagene). Transfection efficiency was controlled via cotransfection of constitutively active pRL-CMV Renila reniformis luciferase reporter (Promega). HEK293 cells were grown in minimum essential medium (MEM) with 2 mM L-glutamine and Earle's balanced salt solution supplemented with 8.3% fetal bovine serum, 0.1 mM non-essential amino acids, 1 mM sodium pyruvate, at 37° C. in 5% CO2. 3.5×10^4 cells/well were plated in 96-well cell culture plates in growth medium supplemented with 8.3% fetal bovine serum for 16-20 h to ˜90% confluency. For transfection, medium was taken off and LXR and cofactor expressing plasmids as well as the reporter plasmids are added in 30 μL OPTIMEM/well including polyethylene-imine (PEI) as vehicle. Typical amounts of plasmids transfected/well: pCMV-AD-LXR (5 ng), pCMV-BD-cofactor (5 ng), pFR-Luc (100 ng), pRL-CMV (0.5 ng). Compound stocks were prepared in DMSO, prediluted in MEM to a total volume of 120 μL, and added 4 h after addition of the transfection mixture (final vehicle concentration not exceeding 0.2%). Cells were incubated for additional 16 h, lysed for 10 min in 1× Passive Lysis Buffer (Promega) and Firefly and Renilla luciferase activities were measured sequentially in the same cell extract using buffers containing D-luciferine and coelenterazine, respectively. Measurements of luminescence were done in a BMG-luminometer.

[2] = target: T2, ligand-binding domain (LBD) of LXRα (Homo sapiens, UniProt Q13133); assay: LXR Gal4 reporter transient transfection assay (LBD-M2H Gal4α); assay type: cell-based; conditions: HEK293 cells, LXRα LBD; read-out: LBD-M2H Gal4α (EC50 range)
T2 construct: expressed in transfected cells; host or cells: HEK293
T2 sequence (Q13133 155-447): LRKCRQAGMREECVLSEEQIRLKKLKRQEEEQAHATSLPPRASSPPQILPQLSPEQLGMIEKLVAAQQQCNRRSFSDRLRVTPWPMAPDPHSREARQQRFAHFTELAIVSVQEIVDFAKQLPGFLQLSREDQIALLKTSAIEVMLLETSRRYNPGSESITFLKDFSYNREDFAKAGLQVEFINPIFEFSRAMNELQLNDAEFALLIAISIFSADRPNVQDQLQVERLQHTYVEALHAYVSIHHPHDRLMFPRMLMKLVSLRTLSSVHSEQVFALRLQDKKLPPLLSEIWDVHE
Method: as §1, §2, §3

[3] = target: T3, LXRβ ligand-binding domain (Homo sapiens, UniProt P55055, DUP175-175); assay: TR-FRETβ activity assay (NCoA3 coactivator peptide recruitment); assay type: biochemical; conditions: TR-FRET, 1 μM 24(S)-25-epoxycholesterol prestimulation; read-out: FRETβ (EC50 range)
T3 construct: amino acids 156-461; NP009052; made in house; host or cells: E. coli
T3 sequence (P55055 with tags, fused parts or gaps DUP175-175 limits assumed): T1 sequence (P55055 with tags, fused parts or gaps DUP175-175 limits assumed)
Summary of the method: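 Inverse agonism assessed by loss of coactivator recruitment, read as TR-FRET 665/615 nm after 1 h equilibration at 4 °C, in triplicate. Ten-point titration from 50 μM to 0.002 μM against LXRβ LBD (76 nM, GST fusion) prestimulated with 1 μM 24(S)-25-epoxycholesterol, with 400 nM NCoA3 peptide, pH 6.8. Sulfonyl acetic acids kept as 20 mM DMSO stocks with 100 mM TFA.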

SMILES	EC50 [1] [µM]	EC50 [2] [µM]	EC50 [3] [µM]
COc1ccc(S(=O)(=O)n2c(-c3ccccc3)c(-c3ccsc3C)c3ccccc32)cc1 [20/21]	< 0.1	0.1 to 1	1 to 10
N#Cc1sccc1-c1c(-c2cccs2)n(S(=O)(=O)c2ccc(F)cc2F)c2ccccc12 [20/12]	< 0.1	< 0.1	1 to 10
N#Cc1sccc1-c1c(-c2cccs2)n(S(=O)(=O)c2ccc(Cl)cc2)c2cc(OCCCC(=O)O)ccc12 [15/4]	< 0.1	0.1 to 1	1 to 10
Cc1ccc(S(=O)(=O)n2c(-c3ccc(/C=C/C(=O)O)s3)c(-c3ccsc3C#N)c3ccccc32)cc1 [3/19]	0.1 to 1	0.1 to 1	1 to 10
N#Cc1sccc1-c1c(-c2cccs2)n(S(=O)(=O)c2ccc(Cl)cc2)c2cc(O)ccc12 [13/1]	< 0.1	< 0.1	1 to 10
N#Cc1sccc1-c1c(-c2ccccc2)n(S(=O)(=O)c2ccc(Cl)cc2)c2ccccc12 [Example 26, 3-(1-((4-Chlorophenyl)sulfonyl)-2-phenyl-1H-indol-3-yl)thiophene-2-carbonitrile]	< 0.1	< 0.1	0.1 to 1
N#Cc1sccc1-c1c(-c2cccc(N3CCC(C(=O)O)C3)c2)n(S(=O)(=O)c2ccc(Cl)cc2)c2ccccc12 (stereo not drawn) [30/11]	< 0.1	0.1 to 1	0.1 to 1
N#Cc1sccc1-c1c(-c2cccs2)n(S(=O)(=O)c2ccc(F)cc2)c2ccccc12 [20/11]	< 0.1	< 0.1	0.1 to 1
N#Cc1sccc1-c1c(-c2cccs2)n(S(=O)(=O)c2ccc(Cl)cc2)c2ccccc12 [20/13]	< 0.1	< 0.1	0.1 to 1
Cc1ccc(S(=O)(=O)n2c(-c3cc(C4CC4C(=O)O)cs3)c(-c3ccsc3C#N)c3ccccc32)cc1 (stereo not drawn) [3/17]	< 0.1	0.1 to 1	1 to 10
N#Cc1sccc1-c1c(-c2cccs2)n(S(=O)(=O)c2ccc(Cl)cc2)c2ccc(OCCCC(=O)O)cc12 [15/1]	0.1 to 1	0.1 to 1	1 to 10
CS(=O)(=O)c1ccccc1-c1c(-c2cccs2)n(S(=O)(=O)c2ccc(Cl)cc2)c2ccccc12 [20/5]	0.1 to 1	0.1 to 1	1 to 10
N#Cc1sccc1-c1c(-c2cccc(N3CC(C(=O)O)C3)c2)n(S(=O)(=O)c2ccccc2)c2ccc(F)cc12 [3/9]	< 0.1	0.1 to 1	1 to 10
N#Cc1c(OCC(=O)O)cccc1-c1c(-c2cccs2)n(S(=O)(=O)c2ccc(Cl)cc2)c2ccccc12 [21/2]	1 to 10	1 to 10	1 to 10
CS(=O)(=O)NC(=O)C1CC1c1cccc(-c2c(-c3ccsc3C#N)c3ccccc3n2S(=O)(=O)c2ccc(Cl)cc2)c1 (stereo not drawn) [32/1]	< 0.1	0.1 to 1	0.1 to 1
Cc1cc(C)c(S(=O)(=O)n2c(-c3cccs3)c(-c3ccsc3C#N)c3ccccc32)c(C)c1 [1/26]	< 0.1	0.1 to 1	1 to 10
